Experimental findings from patent US20240383875A1, “Benzimidazole Pyridine Derivatives” (Hoffmann-La Roche Inc., priority 2022, published 2024) are described below.

Common to all, as to assay type: biochemical
One assay concerns the target SIK1 (Homo sapiens, UniProt P57059). Description: Enzymatic activity assay SIK1, RapidFire mass spectrometry (phosphorylation of CHK-peptide). The conditions noted are these: RapidFire MS, inhibition of SIK1; read-out: SIK1 RF IC50. The essentials: (§1)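 Human SIK1/2/3, 5/0.5/1.5 nM; 12.5 mM HEPES pH 7.0, 10 mM Mg acetate, 0.005% BSA. 30 min cpd pre-inc, + CHK-peptide (10 μM soln) + ATP (100 μM soln), 45 min RT. Formic acid stop; RF-MS phospho ratio; IC50.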

The target of the next assay is SIK2 (Homo sapiens, UniProt Q9H0K1). The assay can be described thus: Enzymatic activity assay SIK2, RapidFire mass spectrometry (phosphorylation of CHK-peptide). Conditions: RapidFire MS, inhibition of SIK2; read-out: SIK2 RF IC50. The essentials:
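Read-out is the summed phospho-species fraction of CHK-peptide by RapidFire mass spectrometry, normalized between DMSO and 1 μM YKL-05-099. The reaction used 0.5 nM SIK2, 100 μM ATP and 10 μM peptide solutions in HEPES pH 7.0/10 mM magnesium acetate for 45 min at ambient temperature.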

The target in the next assay is SIK3 (Homo sapiens, UniProt Q9Y2K2). Description: Enzymatic activity assay SIK3, RapidFire mass spectrometry (phosphorylation of CHK-peptide). The conditions noted are these: RapidFire MS, inhibition of SIK3; read-out: SIK3 RF IC50. The essentials: as §1
Chain of SIK3 (Q9Y2K2 whole entry): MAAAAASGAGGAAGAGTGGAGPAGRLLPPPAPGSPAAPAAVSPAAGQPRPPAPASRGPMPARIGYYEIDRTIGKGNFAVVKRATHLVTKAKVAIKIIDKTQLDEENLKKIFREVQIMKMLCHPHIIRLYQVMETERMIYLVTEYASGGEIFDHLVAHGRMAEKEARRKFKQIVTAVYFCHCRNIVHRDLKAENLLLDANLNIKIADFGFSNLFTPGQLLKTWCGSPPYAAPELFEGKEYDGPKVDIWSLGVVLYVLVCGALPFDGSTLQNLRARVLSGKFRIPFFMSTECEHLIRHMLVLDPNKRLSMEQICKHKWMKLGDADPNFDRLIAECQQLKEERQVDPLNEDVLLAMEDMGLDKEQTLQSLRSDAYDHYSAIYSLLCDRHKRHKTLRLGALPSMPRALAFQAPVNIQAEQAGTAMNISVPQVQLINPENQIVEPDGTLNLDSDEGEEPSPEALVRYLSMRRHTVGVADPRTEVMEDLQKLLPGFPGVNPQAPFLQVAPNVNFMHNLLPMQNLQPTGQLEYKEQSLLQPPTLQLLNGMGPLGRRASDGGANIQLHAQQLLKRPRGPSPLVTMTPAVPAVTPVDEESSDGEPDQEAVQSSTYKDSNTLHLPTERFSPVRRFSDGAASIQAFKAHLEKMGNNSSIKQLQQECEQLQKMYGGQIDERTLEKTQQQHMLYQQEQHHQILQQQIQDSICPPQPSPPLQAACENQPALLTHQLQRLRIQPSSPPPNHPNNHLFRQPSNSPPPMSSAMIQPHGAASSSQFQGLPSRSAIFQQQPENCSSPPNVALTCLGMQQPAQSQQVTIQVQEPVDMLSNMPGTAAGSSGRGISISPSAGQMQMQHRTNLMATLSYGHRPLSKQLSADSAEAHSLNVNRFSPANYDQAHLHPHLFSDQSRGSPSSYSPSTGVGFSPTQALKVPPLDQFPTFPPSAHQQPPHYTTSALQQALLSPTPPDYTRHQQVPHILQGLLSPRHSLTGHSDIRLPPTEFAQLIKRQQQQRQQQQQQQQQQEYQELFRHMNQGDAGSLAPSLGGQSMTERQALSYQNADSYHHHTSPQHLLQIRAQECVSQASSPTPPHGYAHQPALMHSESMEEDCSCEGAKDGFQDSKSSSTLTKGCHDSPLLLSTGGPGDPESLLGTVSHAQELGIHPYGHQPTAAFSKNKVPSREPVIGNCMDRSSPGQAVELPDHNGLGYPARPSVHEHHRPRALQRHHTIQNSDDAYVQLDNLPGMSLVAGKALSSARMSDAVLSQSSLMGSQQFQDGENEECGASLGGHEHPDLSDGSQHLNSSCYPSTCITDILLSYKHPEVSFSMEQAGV

pIC50: −log10 of the molar value.

Chain of SIK2 (Q9H0K1 whole entry): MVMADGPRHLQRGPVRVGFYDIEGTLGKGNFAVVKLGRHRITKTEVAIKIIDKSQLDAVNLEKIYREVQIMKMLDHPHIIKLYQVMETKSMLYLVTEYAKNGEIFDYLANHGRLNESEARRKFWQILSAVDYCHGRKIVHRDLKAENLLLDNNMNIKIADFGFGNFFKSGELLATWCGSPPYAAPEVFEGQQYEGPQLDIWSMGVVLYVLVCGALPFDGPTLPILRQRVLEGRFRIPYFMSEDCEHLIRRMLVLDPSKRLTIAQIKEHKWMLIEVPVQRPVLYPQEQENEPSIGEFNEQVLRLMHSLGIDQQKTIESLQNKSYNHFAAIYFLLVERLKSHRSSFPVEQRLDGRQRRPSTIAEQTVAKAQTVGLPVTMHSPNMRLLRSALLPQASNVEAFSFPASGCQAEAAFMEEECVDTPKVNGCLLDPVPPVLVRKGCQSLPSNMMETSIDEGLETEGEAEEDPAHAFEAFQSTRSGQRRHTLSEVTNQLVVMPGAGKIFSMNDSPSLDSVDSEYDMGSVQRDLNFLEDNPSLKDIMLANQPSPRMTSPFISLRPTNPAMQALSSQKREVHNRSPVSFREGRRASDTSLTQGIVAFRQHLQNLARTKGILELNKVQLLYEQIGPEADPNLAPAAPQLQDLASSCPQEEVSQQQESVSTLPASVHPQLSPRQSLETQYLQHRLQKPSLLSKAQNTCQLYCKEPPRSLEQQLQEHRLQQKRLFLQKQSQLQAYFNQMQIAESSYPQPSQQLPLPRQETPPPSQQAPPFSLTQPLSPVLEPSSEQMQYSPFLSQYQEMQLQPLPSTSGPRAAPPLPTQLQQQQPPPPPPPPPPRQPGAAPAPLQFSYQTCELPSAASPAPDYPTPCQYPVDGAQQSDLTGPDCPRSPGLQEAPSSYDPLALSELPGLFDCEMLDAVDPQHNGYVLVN
Chain of SIK1 (P57059 whole entry): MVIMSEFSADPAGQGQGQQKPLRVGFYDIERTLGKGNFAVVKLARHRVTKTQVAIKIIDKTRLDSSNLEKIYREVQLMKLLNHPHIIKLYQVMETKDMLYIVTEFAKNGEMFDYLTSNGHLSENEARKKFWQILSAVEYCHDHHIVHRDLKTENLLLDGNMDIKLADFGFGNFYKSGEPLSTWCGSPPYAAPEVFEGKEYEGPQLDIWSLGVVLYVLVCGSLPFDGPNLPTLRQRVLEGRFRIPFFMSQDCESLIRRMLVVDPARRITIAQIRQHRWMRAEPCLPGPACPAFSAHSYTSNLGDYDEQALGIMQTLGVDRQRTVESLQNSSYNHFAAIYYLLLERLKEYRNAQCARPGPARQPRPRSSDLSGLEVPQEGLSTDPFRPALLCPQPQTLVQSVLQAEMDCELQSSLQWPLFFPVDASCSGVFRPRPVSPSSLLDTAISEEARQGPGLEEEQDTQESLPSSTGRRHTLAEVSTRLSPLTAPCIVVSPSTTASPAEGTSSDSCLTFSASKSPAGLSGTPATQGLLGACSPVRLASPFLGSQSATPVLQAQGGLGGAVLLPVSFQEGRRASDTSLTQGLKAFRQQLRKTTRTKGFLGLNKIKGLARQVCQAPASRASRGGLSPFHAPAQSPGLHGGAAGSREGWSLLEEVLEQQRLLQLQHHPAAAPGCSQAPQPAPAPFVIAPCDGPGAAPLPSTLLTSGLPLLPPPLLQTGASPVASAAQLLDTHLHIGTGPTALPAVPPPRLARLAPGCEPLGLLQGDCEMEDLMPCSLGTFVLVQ

Take `COc1cc2ncn(-c3ccc([C@@H](C)O)c(-c4ccc(F)cc4OC)n3)c2cc1OC` [Example 22, (R)-1-(6-(5,6-Dimethoxy-1H-benzo[d]imidazol-1-yl)-2-(4-fluoro-2-methoxyphenyl)pyridin-3-yl)ethan-1-ol]: the pIC50 (usually the negative decadic logarithm of the IC50, by convention in mol/L) on SIK1 was 6.01; on SIK2, 6.07; on SIK3, 5.35.

`COc1cc2ncn(-c3ccc(C(O)C4CC4)c(-c4ccc(F)cc4OC)n3)c2cc1OC` (stereo not drawn) [Example 23, Cyclopropyl(6-(5,6-dimethoxy-1H-benzo[d]imidazol-1-yl)-2-(4-fluoro-2-methoxyphenyl)pyridin-3-yl)methanol]: the negative logarithm of the IC50 (pIC50) was 5.44 on SIK1, 5.41 on SIK2 and 5.05 on SIK3.

`COc1cc2ncn(-c3ccc(C(C)O)c(-c4cccc(Cl)c4)n3)c2cc1OC` (stereo not drawn) [Example 19, 1-(2-(3-Chlorophenyl)-6-(5,6-dimethoxy-1H-benzo[d]imidazol-1-yl)pyridin-3-yl)ethan-1-ol]: the values for the pIC50 on SIK1, on SIK2 and on SIK3 were 7.17, 7.58 and 6.93, respectively.

Regarding `COCCOCCOCCOCCOCCOCCOCCOc1ccc(Nc2ccc3c(c2)ncn3-c2ccc(C(C)O)c(-n3nc(C#N)cc3C)n2)nn1` (stereo not drawn) [Example 293, 1-[3-(1-hydroxyethyl)-6-[5-[[6-[2-[2-[2-[2-[2-[2-(2-methoxyethoxy)ethoxy]ethoxy]ethoxy]ethoxy]ethoxy]ethoxy]pyridazin-3-yl]amino]benzimidazol-1-yl]-2-pyridyl]-5-methyl-pyrazole-3-carbonitrile], the negative logarithm of the IC50 (pIC50) at SIK1 is 6.88; on SIK2 it was 8.22; on SIK3, 8.55.

For `Cc1nnc(Nc2ccc3c(c2)ncn3-c2ccc(C(C)O)c(-n3nc(C#N)cc3C)n2)s1` (stereo not drawn) [Example 111, 1-[3-(1-Hydroxyethyl)-6-[5-[(5-methyl-1,3,4-thiadiazol-2-yl)amino]benzimidazol-1-yl]-2-pyridyl]-5-methyl-pyrazole-3-carbonitrile], the pIC50 on SIK1 is 7.96; on SIK2 it was 8.85; at SIK3 it was 9.10.

As for `Cc1cc(C#N)nn1-c1nc(-n2cnc3cc(Nc4ccc(C(F)(F)F)nn4)ccc32)ccc1C(C)O` (stereo not drawn) [Example 249, 1-[3-(1-Hydroxyethyl)-6-[5-[[6-(trifluoromethyl)pyridazin-3-yl]amino]benzimidazol-1-yl]-2-pyridyl]-5-methyl-pyrazole-3-carbonitrile], the pIC50 on SIK1 is 7.27; at SIK2, 8.66; at SIK3, 9.10.

On to `Cc1ccc(Nc2cc3ncn(-c4ccc(C(C)O)c(-n5nc(C#N)cc5C)n4)c3cc2OCCN(C)C)nn1` (stereo not drawn) [Example 189, 1-[6-[6-[2-(Dimethylamino)ethoxy]-5-[(6-methylpyridazin-3-yl)amino]benzimidazol-1-yl]-3-(1-hydroxyethyl)-2-pyridyl]-5-methyl-pyrazole-3-carbonitrile], for which the negative logarithm of the IC50 (pIC50) on SIK1 is 6.73; at SIK2, 8.41; on SIK3, 8.33.

As for `Cc1ccc(Nc2ccc3c(c2)ncn3-c2ccc(C(C)O)c(-n3nc(OC(F)F)cc3C)n2)nn1` (stereo not drawn) [Example 290, 1-[2-[3-(difluoromethoxy)-5-methyl-pyrazol-1-yl]-6-[5-[(6-methylpyridazin-3-yl)amino]benzimidazol-1-yl]-3-pyridyl]ethanol], the negative-log IC50 (pIC50) at SIK1 is 7.27; on SIK2, 9.22; on SIK3, 9.30.

Consider `COCCOc1cc2c(cc1Nc1ccc(C)nn1)ncn2-c1ccc(C(C)O)c(-n2nc(C#N)cc2C)n1` (stereo not drawn) [Example 187, 1-[3-(1-Hydroxyethyl)-6-[6-(2-methoxyethoxy)-5-[(6-methylpyridazin-3-yl)amino]benzimidazol-1-yl]-2-pyridyl]-5-methyl-pyrazole-3-carbonitrile], for which the results for the negative logarithm of the IC50 (pIC50) on SIK1, on SIK2 and on SIK3 were 7.15, 8.70 and 8.25, respectively.

Regarding `Cc1ccc(Nc2ccc3c(c2)ncn3-c2ccc(C(C)O)c(N3CC4CC(F)(F)C4C3)n2)nn1` (stereo not drawn) [Example 326, 1-[2-(6,6-difluoro-3-azabicyclo[3.2.0]heptan-3-yl)-6-[5-[(6-methylpyridazin-3-yl)amino]benzimidazol-1-yl]-3-pyridyl]ethanol], the pIC50 on SIK1 was 5.78; at SIK2, 7.17; on SIK3 it was 8.11.

Take `COc1cc2ncn(-c3ccc(C(C)O)c(-c4ccc(F)cc4OC)n3)c2cc1OC` (stereo not drawn) [Example 17, 1-(6-(5,6-Dimethoxy-1H-benzo[d]imidazol-1-yl)-2-(4-fluoro-2-methoxyphenyl)pyridin-3-yl)ethan-1-ol]: the pIC50 on SIK1 was 6.49; on SIK2, 6.81; at SIK3, 5.94.

Consider `Cc1cc(C#N)nn1-c1nc(-n2cnc3cc(Br)c(N4CCN(C5COC5)CC4)cc32)ccc1C(C)O` (stereo not drawn) [Example 190, 1-[6-[5-Bromo-6-[4-(oxetan-3-yl)piperazino]benzimidazol-1-yl]-3-(1-hydroxyethyl)-2-pyridyl]-5-methyl-pyrazole-3-carbonitrile], for which the pIC50 at SIK1 was 7.08; on SIK2, 7.29; on SIK3, 6.42.

In the case of `Cc1cc(C#N)nn1-c1nc(-n2cnc3cc(Nc4nncc5c4OCCN5C)ccc32)ccc1C(C)O` (stereo not drawn) [Example 310, 1-[3-(1-hydroxyethyl)-6-[5-[(4-methyl-2,3-dihydropyridazino[4,5-b][1,4]oxazin-8-yl)amino]benzimidazol-1-yl]-2-pyridyl]-5-methyl-pyrazole-3-carbonitrile], the pIC50 at SIK1 is 7.03; on SIK2, 8.96; on SIK3, 9.30.

`Cc1ccc(Nc2ccc3c(c2)ncn3-c2ccc(C(C)O)c(-c3cncnc3NC3CC3)n2)nn1` (stereo not drawn) [Example 163, 1-[2-[4-(Cyclopropylamino)pyrimidin-5-yl]-6-[5-[(6-methylpyridazin-3-yl)amino]benzimidazol-1-yl]-3-pyridyl]ethanol]: the pIC50 on SIK1 was under 4.52; on SIK2, 6.02; on SIK3 it was 6.74.

Consider `Cc1ccc(Nc2ccc3ncn(-c4ccc(C(O)C(F)F)c(-n5nc(C#N)cc5C)n4)c3c2)nn1` (stereo not drawn) [Example 199, 1-[3-(2,2-Difluoro-1-hydroxy-ethyl)-6-[6-[(6-methylpyridazin-3-yl)amino]benzimidazol-1-yl]-2-pyridyl]-5-methyl-pyrazole-3-carbonitrile], for which the pIC50 on SIK1 is 6.61; at SIK2, 6.77; on SIK3, 6.43.

With `Cc1cc(C#N)nn1-c1nc(-n2cnc3ccc(N4CCCC45COC5)cc32)ccc1C(C)O` (stereo not drawn) [Example 295, 1-[3-(1-hydroxyethyl)-6-[6-(2-oxa-5-azaspiro[3.4]octan-5-yl)benzimidazol-1-yl]-2-pyridyl]-5-methyl-pyrazole-3-carbonitrile], the pIC50 on SIK1 was 8.00; at SIK2 it was 7.71; at SIK3 it was 6.63.

For the compound `Cc1ccc(Nc2ccc3ncn(-c4ccc(C(C)O)c(-n5ncc(C#N)c5C)n4)c3c2)nn1` (stereo not drawn) [Example 150, 1-[3-(1-Hydroxyethyl)-6-[6-[(6-methylpyridazin-3-yl)amino]benzimidazol-1-yl]-2-pyridyl]-5-methyl-pyrazole-4-carbonitrile], the negative logarithm of the IC50 (pIC50) is 4.61 at SIK1, 6.68 at SIK2 and 7.47 on SIK3.
